Reference: US20250059172A1, “INDAZOLE COMPOUND AND PHARMACEUTICAL” (NIPPON SHINYAKU CO., LTD., priority 2021, published 2025)
Where a name gives a salt, the structure may show the parent alone.

What was measured:
[1] = target: human mPGES-1 (Homo sapiens (Human), UniProt O14684); assay: mPGES-1 inhibitory activity test; format: biochemical; conditions: for IC50: microsomes of CHO-K1 cells expressing human mPGES-1, PGH2 1 μM, PGE2 by HTRF, read-out: mPGES-1 inhibition (IC50 nM); for inhibition at 0.01 µM: 10 nM test compound; for inhibition at 0.1 µM: 100 nM test compound
Sequence of human mPGES-1 (O14684 whole entry): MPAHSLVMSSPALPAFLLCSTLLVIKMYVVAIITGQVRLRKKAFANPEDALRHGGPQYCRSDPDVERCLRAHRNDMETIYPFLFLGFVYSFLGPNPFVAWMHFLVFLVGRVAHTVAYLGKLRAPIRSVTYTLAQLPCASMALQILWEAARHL
Protocol: mPGES-1 microsomal specimens were prepared by transiently transfecting CHO-K1 cells (DS Pharma Biomedical Co. Ltd) with a plasmid encoding human mPGES-1 cDNA using FuGENE 6 Transfection Reagent (Promega). The prepared mPGES-1 microsome specimens were diluted in potassium phosphate buffer of pH 7.4 comprising 2.5 mM reduced glutathione (Sigma-Aldrich), DMSO solution of a test compound or DMSO was added to a final concentration of 1% of DMSO, and then incubated at 4° C. for 20 minutes. The enzymatic reaction was then initiated by adding a solution of PGH2 (Cayman chemical) substrate of a final concentration 1 μM and incubated at 4° C. for 60 seconds. The reaction was terminated by adding a solution of ferric chloride (STREM CHEMICALS) and citric acid (Wako Pure Chemical Industries) salt to a final concentration of 5 mg/mL and 250 mM, respectively. The formed PGE2 was quantified using the HTRF kit (Cisbio International). Solutions without the test compound were used as positive controls, and solutions without the test compound and microsomal specimens were used as negative controls. 100% activity was defined as production of PGE2 in the positive control minus that in the negative control. The percentage inhibition of production of PGE2 at final concentrations of 10 nM and 100 nM of the test compound was then calculated, or IC50 values were determined using standard methods.

[2] = system: human A549 cells; assay: Inhibition test of PGE2 production using human A549 cells; format: cell-based; conditions: IL-1β stimulated A549 cells, 24 h, PGE2 by HTRF, read-out: A549 cell inhibition of PGE2 production IC50
Protocol: 100 μL of RPMI medium (Sigma) comprising 10% FBS and human A549 cells was seeded in a 96-well plate to […] cells per well, and incubated overnight. The medium was then removed and washed with phosphate-buffered saline, and added to a DMSO solution of the test compound or RPMI medium comprising 3% FBS with DMSO to a final concentration of 0.1% DMSO. After incubation for 60 minutes, IL-1P (5 ng/well, BioLegend) was added to the solution. After incubation at 37° C. for 24 h, PGE2 in the medium was quantified using the HTRF kit (Cisbio International) and PGF2a was also quantified using the EIA kit (Cayman chemical). Solutions without the test compound were used as positive controls, and solutions without the test compound and IL-1β were used as negative controls. 100% activity was defined as production of PGE2 and PGF2a in the positive control minus those in the negative control. IC50 values were then determined using standard methods.

Structure (SMILES)	IC50 [1]	IC50 [2]	inhibition at 0.01 µM [1]	inhibition at 0.1 µM [1]
O=C(Nc1cccc2c1cnn2-c1ccc(F)cc1)c1cc(CNC(=O)C2CCCC2)ccc1Cl [Example 152, 2-Chloro-5-{[(cyclopentylcarbonyl)amino]methyl}-N-[1-(4-fluorophenyl)-1H-indazol-4-yl]benzamide]	–	7.6 nM	58%	–
O=C(Nc1cccc2c1cnn2-c1ccc(C(F)(F)F)cc1)c1cc(CNC(=O)[C@H]2CC[C@@H](O)CC2)ccc1Cl [Example 40, 2-Chloro-5-({[cis-(4-hydroxycyclohexyl)carbonyl]amino}methyl)-N-{1-[4-(trifluoromethyl)phenyl]-1H-indazol-4-yl}benzamide]	19.1 nM	60.2 nM	–	–
COc1cc(-n2ncc3c(NC(=O)c4cc(CNC(=O)C(C)(C)C)ccc4Cl)cccc32)ccn1 [Example 73, 2-Chloro-5-{[(2,2-dimethylpropanoyl)amino]methyl}-N-[1-(2-methoxypyridin-4-yl)-1H-indazol-4-yl]benzamide hydrochloride]	1.2 nM	3.3 nM	–	–
CC(C)(CO)C(=O)NCc1ccc(Cl)c(C(=O)Nc2cccc3c2cnn3-c2ccc(Cl)cc2)c1 [Example 149, 2-Chloro-N-[1-(4-chlorophenyl)-1H-indazol-4-yl]-5-{[(3-hydroxy-2,2-dimethylpropanoyl)amino]methyl}benzamide]	–	3.2 nM	94%	–
Cc1cc(-n2ncc3c(NC(=O)c4cc(CNC(=O)C(C)(C)C)ccc4Cl)cccc32)ccn1 [Example 58, 2-Chloro-5-{[(2,2-dimethylpropanoyl)amino]methyl}-N-[1-(2-methylpyridin-4-yl)-1H-indazol-4-yl]benzamide hydrochloride]	5.9 nM	5.9 nM	–	–
O=C(Nc1cccc2c1cnn2-c1ccc(C(F)(F)F)nc1)c1cc(CNS(=O)(=O)C2CC2)ccc1Cl [Example 179, 2-Chloro-5-{[(cyclopropylsulfonyl)amino]methyl}-N-{1-[6-(trifluoromethyl)pyridin-3-yl]-1H-indazol-4-yl}benzamide]	–	4.4 nM	59%	95%
Cc1ccc(-n2ncc3c(NC(=O)c4cc(CNC(=O)C(C)(C)C)ccc4Cl)cccc32)cc1Cl [Example 53, 2-Chloro-N-[1-(3-chloro-4-methylphenyl)-1H-indazol-4-yl]-5-([(2,2-dimethylpropanoyl)amino]methyl)benzamide]	2.6 nM	1.8 nM	–	–
CC(C)(CO)C(=O)NCc1ccc(Cl)c(C(=O)Nc2cccc3c2cnn3-c2cscn2)c1 [Example 192, 2-Chloro-5-{[(3-hydroxy-2,2-dimethylpropanoyl)amino]methyl}-N-[1-(1,3-thiazol-4-yl)-1H-indazol-4-yl]benzamide]	–	31.4 nM	70%	90%
COc1ccc(-n2ncc3c(NC(=O)c4cc(CNC(=O)C(C)(C)C)ccc4Cl)cccc32)cn1 [Example 63, 2-Chloro-5-{[(2,2-dimethylpropanoyl)amino]methyl}-N-[1-(6-methoxypyridin-3-yl)-1H-indazol-4-yl]benzamide]	1 nM	13.7 nM	–	–
O=C(Nc1cccc2c1cnn2-c1ccc(F)cc1)c1cc(CNC(=O)C2(O)CC2)ccc1Cl [Example 154, 2-Chloro-N-[1-(4-fluorophenyl)-1H-indazol-4-yl]-5-({[(1-hydroxycyclopropyl)carbonyl]amino}methyl)benzamide]	–	17.6 nM	58%	89%
COCc1ccc(-n2ncc3c(NC(=O)c4cc(CNC(=O)C(C)(C)C)ccc4Cl)cccc32)cn1 [Example 74, 2-Chloro-5-{[(2,2-dimethylpropanoyl)amino]methyl}-N-{1-[6-(methoxymethyl)pyridin-3-yl]-1H-indazol-4-yl}benzamide hydrochloride]	1.3 nM	15.6 nM	–	–
COCc1cncc(-n2ncc3c(NC(=O)c4cc(CNC(=O)C(C)(C)C)ccc4Cl)cccc32)c1 [Example 78, 2-Chloro-5-{[(2,2-dimethylpropanoyl)amino]methyl}-N-{1-[5-(methoxymethyl)pyridin-3-yl]-1H-indazol-4-yl}benzamide hydrochloride]	10.4 nM	9.8 nM	–	–
Cc1cncc(-n2ncc3c(NC(=O)c4cc(CNC(=O)C(C)(C)C)ccc4C(F)(F)F)cccc32)c1 [Example 246, 5-{[(2,2-dimethylpropanoyl)amino]methyl}-N-[1-(5-methylpyridin-3-yl)-1H-indazol-4-yl]-2-(trifluoromethyl)benzamide]	–	3.5 nM	78%	89%
Cc1cncc(-n2ncc3c(NC(=O)c4cc(CNC(=O)C(C)(C)C)ccc4Cl)cccc32)c1 [Example 60, 2-Chloro-5-{[(2,2-dimethylpropanoyl)amino]methyl}-N-[1-(5-methylpyridin-3-yl)-1H-indazol-4-yl]benzamide hydrochloride]	6.7 nM	10.4 nM	–	–
CC(C)(C)C(=O)NCc1ccc(Cl)c(C(=O)Nc2cccc3c2cnn3Cc2ccc(C(F)(F)F)cc2)c1 [Example 92]	5.4 nM	4.2 nM	–	–
COc1cccc(Cn2ncc3c(NC(=O)c4cc(CNC(=O)C(C)(C)C)ccc4Cl)cccc32)c1 [Example 89, 2-Chloro-5-{[(2,2-dimethylpropanoyl)amino]methyl}-N-[1-(3-methoxybenzyl)-1H-indazol-4-yl]benzamide]	3.5 nM	20.7 nM	–	–

Further lines, results first:

IC50 [1]	IC50 [2]	inhibition at 0.01 µM [1]	inhibition at 0.1 µM [1]	Structure (SMILES)
84.7 nM	52.4 nM	–	–	CC(=O)NCc1ccc(Cl)c(C(=O)Nc2cccc3c2cnn3-c2ccc(C(F)(F)F)cc2)c1 [Example 18, 5-[(Acetylamino)methyl]-2-chloro-N-{1-[4-(trifluoromethyl)phenyl]-1H-indazol-4-yl}benzamide]
2.7 nM	1.1 nM	–	–	O=C(Nc1cccc2c1cnn2-c1ccc(C(F)(F)F)nc1)c1cc(CNC(=O)C2CC2)ccc1Cl [Example 12, 2-Chloro-5-{[(cyclopropylcarbonyl)amino]methyl}-N-{1-[6-(trifluoromethyl)pyridin-3-yl]-1H-indazol-4-yl}benzamide]
17 nM	1.6 nM	–	–	O=C(Nc1cccc2c1cnn2-c1ccc(C(F)(F)F)cc1)c1cc(CNC(=O)C(F)(F)F)ccc1Cl [Example 17, 2-Chloro-5-{[(trifluoroacetyl)amino]methyl}-N-{1-[4-(trifluoromethyl)phenyl]-1H-indazol-4-yl}benzamide]
–	6 nM	61%	100%	CC(C)(C)CC(=O)NCc1ccc(Cl)c(C(=O)Nc2cccc3c2cnn3-c2cccc(OC(F)F)c2)c1 [Example 138, 2-Chloro-N-{1-[3-(difluoromethoxy)phenyl]-1H-indazol-4-yl}-5-{[(3,3-dimethylbutanoyl)amino]methyl}benzamide]
–	2.7 nM	95%	100%	COCC(=O)NCc1ccc(Cl)c(C(=O)Nc2cccc3c2cnn3-c2ccc(OC)c(C(F)(F)F)c2)c1 [Example 265, 2-Chloro-5-{[(methoxyacetyl)amino]methyl}-N-{1-[4-methoxy-3-(trifluoromethyl)phenyl]-1H-indazol-4-yl}benzamide]
9.9 nM	0.9 nM	–	–	COc1cccc(-n2ncc3c(NC(=O)c4cc(CNC(=O)C(C)(C)C)ccc4Cl)cccc32)c1 [Example 49, 2-Chloro-5-{[(2,2-dimethylpropanoyl)amino]methyl}-N-[1-(3-methoxyphenyl)-1H-indazol-4-yl]benzamide]
–	< 1 nM	74%	90%	O=C(Nc1cccc2c1cnn2-c1cccc(C(F)(F)F)c1)c1cc(CNC(=O)C2(C(F)(F)F)CC2)ccc1Cl [Example 220, 2-Chloro-5-[({[1-(trifluoromethyl)cyclopropyl]carbonyl}amino)methyl]-N-{1-[3-(trifluoromethyl)phenyl]-1H-indazol-4-yl}benzamide]
3.3 nM	12.8 nM	–	–	O=C(NCc1ccc(Cl)c(C(=O)Nc2cccc3c2cnn3-c2ccc(C(F)(F)F)cc2)c1)c1ccccc1 [Example 22, 2-Chloro-5-{[(phenylcarbonyl)amino]methyl}-N-{1-[4-(trifluoromethyl)phenyl]-1H-indazol-4-yl}benzamide]
–	3.3 nM	61%	–	COCC(=O)NCc1ccc(Cl)c(C(=O)Nc2cccc3c2cnn3-c2cccc(C(F)(F)F)c2)c1 [Example 222, 2-Chloro-5-{[(methoxyacetyl)amino]methyl}-N-{1-[3-(trifluoromethyl)phenyl]-1H-indazol-4-yl}benzamide]
